Measured values from US20040156869A1, “2-substituted quinazolin-4-ylamine analogues” (Neurogen Corporation, priority 2002, published 2004).

Target: human capsaicin receptor (VR1) (Homo sapiens, UniProt Q8NER1)
Assay: Capsaicin receptor binding assay ([3H]RTX competition, VR1-transfected HEK293 membranes)

Chain of human capsaicin receptor (VR1) (Q8NER1 whole entry): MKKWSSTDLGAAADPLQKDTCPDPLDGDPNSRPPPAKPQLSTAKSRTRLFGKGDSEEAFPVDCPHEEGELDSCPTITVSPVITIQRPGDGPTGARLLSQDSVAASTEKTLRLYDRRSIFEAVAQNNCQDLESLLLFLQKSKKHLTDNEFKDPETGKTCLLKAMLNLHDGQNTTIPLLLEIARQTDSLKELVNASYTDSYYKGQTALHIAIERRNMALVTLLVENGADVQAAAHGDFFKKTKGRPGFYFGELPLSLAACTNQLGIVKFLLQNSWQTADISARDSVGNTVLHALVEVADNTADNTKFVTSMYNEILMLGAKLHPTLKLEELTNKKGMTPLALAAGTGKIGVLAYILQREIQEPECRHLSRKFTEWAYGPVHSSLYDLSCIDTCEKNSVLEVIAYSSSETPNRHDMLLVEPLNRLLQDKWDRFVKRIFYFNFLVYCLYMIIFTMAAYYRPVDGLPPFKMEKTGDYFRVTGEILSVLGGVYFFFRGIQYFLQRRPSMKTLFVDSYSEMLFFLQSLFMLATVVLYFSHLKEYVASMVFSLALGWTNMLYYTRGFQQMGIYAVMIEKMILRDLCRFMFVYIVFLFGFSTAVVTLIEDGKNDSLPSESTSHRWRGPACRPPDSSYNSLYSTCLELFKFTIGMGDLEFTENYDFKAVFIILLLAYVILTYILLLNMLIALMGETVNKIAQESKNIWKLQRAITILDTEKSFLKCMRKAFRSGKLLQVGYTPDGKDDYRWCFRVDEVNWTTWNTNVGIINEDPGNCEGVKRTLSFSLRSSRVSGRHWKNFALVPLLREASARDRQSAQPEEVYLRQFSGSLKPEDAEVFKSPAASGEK

| Ki | SMILES |
| --- | --- |
| < 1 µM | CCc1ccc(Nc2nc(CN3C[C@@H](C)O[C@H](C)C3)nc3cc(-c4ncccc4Cl)ccc23)cc1 [Compound 626, (R,R)-(4-Ethyl-phenyl)-[7-(3-chloro-pyridin-2-yl)-2-(2,6-dimethyl-morpholin-4-ylmethyl)-quinazolin-4-yl]-amine] |
| < 1 µM | C[C@H]1CN(Cc2nc(Nc3ccc(C(C)(C)C)cc3)c3ccc(-c4ncccc4Cl)cc3n2)C[C@H](C)O1 [Compound 649, (S,S)-(4-tert-Butyl-phenyl)-[7-(3-chloro-pyridin-2-yl)-2-(2,6-dimethyl-morpholin-4-ylmethyl)-quinazolin-4-yl]-amine] |
| < 1 µM | CC1CCCN(CCc2nc(Nc3ccc(C(F)(F)F)cc3)c3ccc(-c4ncccc4C(F)(F)F)cc3n2)C1 (stereo not drawn) [Compound 587, [2-(3-Methyl-piperidin-1-ylethyl)-7-(3-trifluoromethyl-pyridin-2-yl)-quinazolin-4-yl]-(4-trifluoromethyl-phenyl)-amine] |
| < 1 µM | CC(C)Oc1ccc(Nc2nc(CN3C[C@@H](C)O[C@H](C)C3)nc3cc(-c4ncccc4Cl)ccc23)cn1 [Compound 629, (R,R)-[7-(3-Chloro-pyridin-2-yl)-2-(2,6-dimethyl-morpholin-4-ylmethyl)-quinazolin-4-yl]-(6-isopropoxy-pyridin-3-yl)-amine] |
| < 1 µM | CC(c1ccccc1)N(C)Cc1nc(Nc2ccc(C(F)(F)F)cc2)c2ccc(-c3ncccc3C(F)(F)F)cc2n1 (stereo not drawn) [Compound 323, [2-{[Methyl-(1-phenyl-ethyl)-amino]-methyl}-7-(3-trifluoromethyl-pyridin-2-yl)-quinazolin-4-yl]-(4-trifluoromethyl-phenyl)-amine] |
| < 1 µM | CN(C)CCOCc1nc(Nc2ccc(C(F)(F)F)cc2)c2ccc(-c3ncccc3C(F)(F)F)cc2n1 [Compound 87, [2-(2-Dimethylamino-ethoxymethyl)-7-(3-trifluoromethyl-pyridin-2-yl)-quinazolin-4-yl]-(4-trifluoromethyl-phenyl)-amine] |
| < 1 µM | CCC(C)c1ccc(Nc2nc(CN3C[C@@H](C)O[C@@H](C)C3)nc3cc(-c4ncccc4Cl)ccc23)cc1 (stereo partly drawn) [Compound 680, (4-sec-Butyl-phenyl)-[7-(3-chloro-pyridin-2-yl)-2-(2,6-dimethyl-morpholin-4-ylmethyl)-quinazolin-4-yl]-amine (cis)] |
| < 1 µM | Cc1cccnc1-c1ccc2c(Nc3ccc(C(C)(C)C)cc3)nc(CN3C[C@@H](C)O[C@@H](C)C3)nc2c1 [Compound 635, (4-tert-Butyl-phenyl)-[2-(2,6-dimethyl-morpholin-4-ylmethyl)-7-(3-methyl-pyridin-2-yl)-quinazolin-4-yl]-amine (cis)] |
| < 1 µM | COc1ncc(-c2ccc3c(Nc4ccc(C(C)(C)C)cc4)nc(CN4C[C@@H](C)O[C@@H](C)C4)nc3c2)c(OC)n1 [Compound 678, (4-tert-Butyl-phenyl)-[7-(2,4-dimethoxy-pyrimidin-5-yl)-2-(2,6-dimethyl-morpholin-4-ylmethyl)-quinazolin-4-yl]-amine (cis)] |
| < 1 µM | OC1CCN(Cc2nc(Nc3ccc(C(F)(F)F)cc3)c3ccc(-c4ncccc4C(F)(F)F)cc3n2)CC1 [Compound 496, 1-[4-(4-Trifluoromethyl-phenylamino)-7-(3-trifluoromethyl-pyridin-2-yl)-quinazolin-2-ylmethyl]-piperidin-4-ol] |

| SMILES | Ki |
| --- | --- |
| CN(C)CCCCOCc1nc(Nc2ccc(C(C)(C)C)cc2)c2ccc(-c3ncccc3C(F)(F)F)cc2n1 [Compound 111, (4-tert-Butyl-phenyl)-[2-(4-dimethylamino-butoxymethyl)-7-(3-trifluoromethyl-pyridin-2-yl)-quinazolin-4-yl]-amine] | < 1 µM |
| CC(C)COCc1nc(Nc2ccc(Cl)cc2)c2ccc(-c3ncccc3Cl)nc2n1 [Compound 260, (4-Chloro-phenyl)-[7-(3-chloro-pyridin-2-yl)-2-isobutoxymethyl-pyrido[2,3-d]pyrimidin-4-yl]-amine] | < 1 µM |
